Results: patent US20240000811A1, “INOSITOL HEXAKISPHOSPHATE ANALOGUES FOR TREATMENT OF CALCIFICATION ASSOCIATED KIDNEY DISEASES” (INOSITEC AG, priority 2020, published 2024)

How the values were obtained:
[1] = system: RPTEC/TERT 1 human proximal tubule cells; test: RNA sequencing of RPTEC treated with Ca/P and compound; type: cell-based; conditions: 50 μM compound
Procedure: RNA sequencing Cells were cultured as described in the imaging assay and treated with a medium control (ProxUp basal medium containing 1/1 mM Ca/P), 5/7 mM Ca/P, 5/7 mM Ca/P in medium containing 50 μM (OEG2)2-IP4 or 50 μM (OEG2)2-IP4 in medium for 24 h. Total RNA was extracted using the RNeasy kit (Quiagen) according to the manufacturer's instructions. Three wells per sample group were prepared and total RNA extracted of those 3 wells pooled. mRNA was purified and RNAseq library was prepared using the TrueSeq RNA kit (Illumina). Sequencing was performed on a Novaseq 6000 (Illumina). Reads were aligned to the human reference genome GRCh38.p10 using the STAR tool (https://github.com/alexdobin/STAR) and transcripts quantified using the Kallisto program (42). Ensembl release 91 was used for the gene model definitions. […] The heatmap was plotted using R software. Overrepresentation analysis was performed on Webgestalt.org (v2019) (43), using differentially expressed genes with p≤0.01, log 2fold change≥0.5. Differential expressed genes were compared to the gene ontology—biological process functional database and as a reference set the human genome—protein coding was used. The weighted set cover of the top 30 enriched categories was plotted. For comparison of expression levels of the selected genes, the fragments per kilobase of exon model per million reads mapped (FPKM) were used. Three independent experiments were performed. RNA sequencing raw data is available on the EMBL Nucleotide Sequence Database (ENA) under the accession number PRJEB38397.

[2] = system: C57BL/6 male mice on high phosphate diet; test: Mouse model of high phosphate-induced kidney damage; type: in vivo; conditions: 100 mg/kg s.c. 3 times/week
Procedure: C57BL/6 male mice (12 weeks of age) were placed on either regular diet containing 0.35% inorganic phosphate or high phosphate diet containing 2.0% inorganic phosphate. These mice were subcutaneously injected with either (OEG2)2-IP4 (100 mg/kg) or vehicle (distilled water) three times a week and then sacrificed at 20 weeks of age to harvest their blood and kidneys. Some mice were transferred individually to metabolic cages to collect urine for 3 days before sacrifice. Serum FGF23 levels were measured using intact FGF23 ELISA (Kinos) according to the manufacturers' protocols. Serum and urine levels of phosphate were measured using Fuji Dri-Chem slides and the analyzer (Dri-Chem NX500V, Fuji, Tokyo, Japan). […] Quantitative RT-PCR reactions were performed using 20 ng of cDNA incubated with 410 nM of each primer and 6 μL of SYBR Green PCR Master mix (Toyoba, Osaka, Japan THUNDERBIRD SYBR qPCR Mix QPS-201) in a total volume of 12 μl. […] Relative mRNA levels were calculated by the comparative threshold cycle method using cyclophilin as an internal control. […] The collagen volume fraction (the ratio of the Sirius Red-positive area to the total area) was quantified using an image analysis software (IMAGE PRO 9.32, Medica Cybernetics, Rockville, MD, USA) as previously described (Hirano, Y. Kurosu et al., FEBS Open Bio. 10, 894-903. DOI:10.1002/2211-5463.1284, 2020). […]

[3] = system: RPTEC/TERT 1 human proximal tubule cells; test: CaP-induced CaOx crystallization on RPTEC monolayers; type: cell-based; conditions: 1.2 mM oxalate, 4 h
Procedure: For the assessment of CaP-induced CaOx crystallization, after 24 h of incubation, Ca/P spiked medium was removed, and cells were washed twice with PBS. Subsequently, medium containing 1.2 mM oxalate and compound was added to each well. After 4 h of incubation at 37° C. and 5% CO2 treatment was removed, and cells washed once with PBS before staining.
For staining, ProxUp basal medium was mixed with calcein (500 nM final concentration), EthD (6 μM final concentration), CellMask stain ([…]) and Hoechst 33342. Staining mixture was added to RPTEC and cells were incubated for 30 min in the dark at 37° C. and 5% CO2. Staining solution was removed, cells were washed with PBS once and ProxUp basal medium was added. Cells were immediately imaged after staining. Images were obtained by epifluorescence microscopy at 37° C., using a Leica CTR6000 microscope. For quantification 3 wells/condition were prepared and 3 images/well were taken. For preliminary adhesion experiments images were taken with a 10× objective, for the imaging assay 20× objective images were taken.

[4] = reported, Schantl et al. 2020; cited from earlier work

COCCOCCO[C@@H]1C(OP(=O)(O)O)[C@H](OCCOCCOC)[C@@H](OP(=O)(O)O)C(OP(=O)(O)O)[C@H]1OP(=O)(O)O (stereo partly shown) [(OEG2)2-IP4]
Ca/P-induced change in gene expression profile ([1]; 5/7 mM Ca/P, 24 h): prevented
differentially expressed genes, Ca/P+compound vs. compound only ([1]; fold change ≥1.5 and p≤0.05): 77
differentially expressed genes, Ca/P+compound vs. negative ctrl ([1]; fold change ≥1.5 and p≤0.05): 76
differentially expressed genes, Ca/P+compound vs. positive ctrl ([1]; fold change ≥1.5 and p≤0.05): 2437
differentially expressed genes, compound only vs. positive ctrl ([1]; fold change ≥1.5 and p≤0.05): 2935
collagen volume fraction (fibrosis), Picro-Sirius red staining of the kidneys, vs vehicle [2]: reduced
kidney damage and fibrosis markers (Spp1, IL36a, Ngal, MMP3, Col1a1 mRNA in kidney) vs vehicle control [2]: significantly reduced
calcium oxalate dihydrate (COD) in CaP-induced CaOx crystallization ([3]; 100 μM compound): almost entirely abolished
CaOx crystal form in CaP-induced CaOx crystallization ([3]; after 24 h Ca/P, dose-dependent): revert CaOx crystallization from calcium oxalate monohydrate (COM), the predominant most stable form, to calcium oxalate dihydrate (COD)
pharmacokinetic profile [4]: favorable
